One assay deals with Aminopeptidase N (Homo sapiens, UniProt P15144). Briefly: Inhibition of human recombinant aminopeptidase N using […] as substrate after 20 to 40 mins by fluorometry.
For a further assay, the target named is Neprilysin (Homo sapiens, UniProt P08473). In words: Inhibition of human recombinant neutral endopeptidase using […] as substrate after 20 to 40 mins by fluorometry.

Residues, ends and D or L forms follow the SMILES beside them. *: point of attachment. X1 = CC(=O)N[C@@H]1[C@@H](O)[C@H](O)[C@@H](CO)O[C@@H]1*

Usually IC50 stands for the point on the concentration scale where inhibition reaches its midpoint.

Chain of Aminopeptidase N (P15144 whole entry): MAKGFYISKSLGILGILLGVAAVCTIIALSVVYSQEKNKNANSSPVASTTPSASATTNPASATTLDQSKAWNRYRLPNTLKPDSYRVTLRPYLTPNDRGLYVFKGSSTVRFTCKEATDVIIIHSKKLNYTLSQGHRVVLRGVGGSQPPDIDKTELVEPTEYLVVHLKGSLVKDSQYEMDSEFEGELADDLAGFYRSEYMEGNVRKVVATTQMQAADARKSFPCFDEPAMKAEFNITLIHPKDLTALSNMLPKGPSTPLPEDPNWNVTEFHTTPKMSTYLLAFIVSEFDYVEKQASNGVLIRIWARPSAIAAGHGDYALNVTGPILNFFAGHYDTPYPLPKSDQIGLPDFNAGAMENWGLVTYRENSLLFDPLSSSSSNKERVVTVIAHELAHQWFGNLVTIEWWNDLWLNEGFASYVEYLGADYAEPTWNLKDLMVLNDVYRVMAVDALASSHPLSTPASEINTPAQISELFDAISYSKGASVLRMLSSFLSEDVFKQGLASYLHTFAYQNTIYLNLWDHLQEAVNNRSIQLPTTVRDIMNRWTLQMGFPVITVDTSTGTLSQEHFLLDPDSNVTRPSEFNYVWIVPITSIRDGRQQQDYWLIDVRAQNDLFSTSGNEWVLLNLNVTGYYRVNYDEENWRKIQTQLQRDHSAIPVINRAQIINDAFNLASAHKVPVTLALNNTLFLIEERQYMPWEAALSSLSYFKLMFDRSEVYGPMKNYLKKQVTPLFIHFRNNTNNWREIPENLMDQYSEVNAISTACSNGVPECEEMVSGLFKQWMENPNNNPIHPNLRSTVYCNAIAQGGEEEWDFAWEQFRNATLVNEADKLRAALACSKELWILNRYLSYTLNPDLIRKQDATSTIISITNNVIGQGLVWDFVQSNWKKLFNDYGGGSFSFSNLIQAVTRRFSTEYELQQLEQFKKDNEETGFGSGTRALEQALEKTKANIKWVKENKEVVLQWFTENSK
Chain of Neprilysin (P08473 whole entry): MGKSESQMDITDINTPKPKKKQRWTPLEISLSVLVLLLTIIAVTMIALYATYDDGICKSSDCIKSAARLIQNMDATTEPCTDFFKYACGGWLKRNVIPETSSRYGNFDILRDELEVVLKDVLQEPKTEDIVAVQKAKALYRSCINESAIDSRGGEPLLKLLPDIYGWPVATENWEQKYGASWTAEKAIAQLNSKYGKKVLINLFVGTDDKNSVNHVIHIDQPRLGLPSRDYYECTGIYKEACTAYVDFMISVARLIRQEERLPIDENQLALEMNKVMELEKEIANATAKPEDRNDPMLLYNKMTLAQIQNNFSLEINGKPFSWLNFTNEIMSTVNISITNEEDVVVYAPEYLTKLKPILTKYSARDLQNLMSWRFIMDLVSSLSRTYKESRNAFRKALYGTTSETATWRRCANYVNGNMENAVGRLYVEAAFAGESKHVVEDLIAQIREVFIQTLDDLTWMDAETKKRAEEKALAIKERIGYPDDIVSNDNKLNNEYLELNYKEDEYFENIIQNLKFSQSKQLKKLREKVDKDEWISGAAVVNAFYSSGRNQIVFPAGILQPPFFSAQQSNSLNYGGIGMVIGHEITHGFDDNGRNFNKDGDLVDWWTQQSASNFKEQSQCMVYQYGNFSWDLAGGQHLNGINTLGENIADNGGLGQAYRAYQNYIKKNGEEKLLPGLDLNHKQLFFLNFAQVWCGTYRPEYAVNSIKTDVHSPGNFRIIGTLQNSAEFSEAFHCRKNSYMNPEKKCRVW

As to `CC(=O)N[C@H]1[C@@H](O[C@H](C)[C@H](NC(=O)[C@H](Cc2ccccc2)NC(=O)[C@H](CCCNC(=N)N)NC(=O)[C@@H](N)CCC(N)=O)C(=O)N[C@@H](CCCNC(=N)N)C(=O)O)O[C@H](CO)[C@@H](O)[C@@H]1O` (H-QRFT(X1)R-OH), the IC50 at Aminopeptidase N and at Neprilysin was over 100 µM each time.
Turning to H-QKFSR-OH, the figures for the IC50 on Aminopeptidase N and at Neprilysin were over 70 µM and 50 µM, respectively.
On to H-QRFCR-OH, for which the IC50 on Neprilysin is over 100 µM.
In the case of H-QRFSK-OH, the IC50 on Aminopeptidase N was over 70 µM; at Neprilysin it was 35 µM.
The corresponding values for H-QRFTR-OH are over 100 µM and over 100 µM.

The values above are taken from ChEMBL document CHEMBL3632516, “Influence of polar side chains modifications on the dual enkephalinase inhibitory activity and conformation of human opiorphin, a pain perception related peptide” (Bioorg Med Chem Lett, 2015).
